US11608325B2, “Polycrystalline form of dehydrophenylahistin-like compound, and manufacturing and purification method and application thereof” (Shenzhen Huahong Marine Biomedicine Co., Ltd., priority 2016, dated 2023)
Entries after “also recorded” stand apart in the source; their conditions may differ.

Experiments:
Format in all cases: physicochemical
[1] = Hygroscopicity test (Chinese Pharmacopoeia 2015 Volume IV, general rule 9103)
Method: The test was conducted according to the general rule 9103 of guiding principle for drug hygroscopicity test in Chinese Pharmacopoeia 2015 edition Volume IV, and the results are shown in Table 6.

[2] = High-humidity stress test (25° C., 90% RH); details: stress testing, high humidity (25° C., 90% RH)
Method: In accordance with the general rule 9001 of guiding principles for stability tests of APIs and preparations in the Chinese Pharmacopoeia 2015 edition Volume IV, stress testing of the δ-crystalline form of (3Z,6Z)-3-benzylidene-6-[(5-tert-butyl-1H-imidazol-4-yl)deuteromethylene]piperazine-2,5-dione was conducted under high temperature, high humidity and illumination conditions, the sample batch number was 20150401, and the results are shown in Tables 7, 8 and 9 below.

[3] = Transformation of other crystalline forms under humidity or in water; details: under 60% humidity condition

[2H]/C(c1nc[nH]c1C(C)(C)C)=c1/[nH]c(=O)/c(=C/c2ccccc2)[nH]c1=O [α-crystalline form, (3Z,6Z)-3-benzylidene-6-[(5-tert-butyl-1H-imidazol-4-yl)deuteromethylene]piperazine-2,5-dione]
Hygroscopicity [1]: certain hygroscopicity
stability / transformation under high-humidity condition [2]: easily transformed into the δ-crystalline form; also recorded: absorbs moisture easily to transform into δ-crystalline form
transformation of crystalline form [3]: may partially transform into δ-crystalline form
